Reference: US20100254965A1, “Adenosine Signaling in Diagnosis, Treatment, and Prevention of Priapism and Erectile Dysfunction” (BOARD OF REGENTS ,THE UNIVERSITY OF TEXAS SYSTEM, priority 2006, published 2010)

Columns and labels:
[1] = system: corpus cavernosal strips (CCS); experiment: EFS-induced relaxation of CCS of SCD transgenic mice and controls; assay type: cell-based, mouse
Method: FIG. 21. Priapic activity seen in SCD transgenic mice is dependent on elevated adenosine in penis via A2BR signaling. (a) Adenosine levels in the penis increased in SCD transgenic mice. Perchloric acid extracts of penile tissues from SCD transgenic mice and control mice were analyzed by HPLC to determine the levels of adenosine. The data are expressed as mean±SE. *p<0.005, (control n=5 and SCD transgenic mice n=6), SCD transgenic mice versus the controls. (b) Increased corpus cavernosum strips (CCS) relaxation by electrical field stimulation (EFS) in SCD transgenic mice. Relaxation effect of EFS with different voltages (0-30V) at 30 Hz and 0.5 ms pulse width, alternating polarity between pulses, in 10 μM phenylephrine-precontracted CCS from the controls (n=5) and SCD transgenic mice (n=5). (c-e) Prolonged penile erection seen in SCD transgenic mice is due to high levels of adenosine in the penis via A2BR signaling. Average EFS-induced relaxation from the PE-precontracted CC strips of the controls and SCD transgenic mice treated without or with PEG-ADA, MRS1706 or ZM241389. EFS-induced force change (c), duration of relaxation by EFS (d) and area under basal line (e) were representative of the CCS relaxation. (n=5 for the controls and n=5 for SCD transgenic mice with or without PEG-ADA, MRS1706 or ZM241389 treatment, respectively). Data are given as means±SE. *p<0.05, SCD transgenic mice versus the controls, **p<0.05, CCS of […] with PEG-ADA, MRS1706 or ZM241389 treatment versus CCS of SCD transgenic mice without treatment; ***p<0.05, CCS of the control mice with MRS1706 and/or L-NAME treatment versus CCS of the control mice without treatment.
Sickle cell disease (SCD) transgenic mice, expressing exclusively human sickle hemoglobin, were also used. These mice were age-matched, adult male homozygotes [SS^−/−, consisting of a transgene and two targeted gene deletions: (Tg (Hu-miniLCR alpha 1G gamma A gamma delta beta s) Hba0//Hba0 Hbb0//Hbb00) and heterozygotes (SS^−/+, SS^−/− genotype except Hbb0//Hbb+), developed on a mixed-strain background (mouse strains FVB/N, 129, DBA/2, C57BL/6, Black Swiss)^94,95.
Function experiments. The tunica albuginea was cut longitudinally, starting at the most proximal point of the corpus cavernosum (CC) toward the penile shaft, and the erectile tissue was partially dissected free from the tunica. One strip of tissue (0.3×0.3×3 mm) was obtained from each corpus cavernosum. The contractility of each isolated corpus cavernosum smooth muscle cells (CCSM) strip was measured using an isometric force transducer (AD Instrument Inc., Georgia, Vt., USA). The strip was mounted in a thermostatically controlled tissue bath containing aerated PSS (mM: 119 NaCl, 4.7 KCl, 24 NaHCO 3, 1.2 KH2PO4, 2.5 CaCl2, 1.2 MgSO4, 0.023 EDTA, and 11 glucose; 5 ml volume, 95% O2 and 5% CO2, 37° C.) and stretched to a resting tension of 0.1 mN. The contractile responses of the strips were analysed by adding 10 μM phenylephrine to the bath, and force changes were recorded in response to drug application and to electrical field stimulation. The particular electrical field stimulation parameters of 0-30V, 30 HZ with a pulse width of approximately 0.5 ms, are commonly used in the mice. […] The changes of cAMP and cGMP contents in CC strips were subsequently measured by commercial enzyme immunoassay kit (Amersham Pharmacia) (see below).

[2] = system: corpus cavernosal strips (CCS); experiment: cAMP levels in isolated CCS (penile organ culture) in response to adenosine; assay type: cell-based, mouse
Method: FIG. 17. A2BR signaling is required for adenosine-mediated corpus cavernosal strips (CCS) relaxation. (a) CCS of wild type mice were treated with different concentrations of theophiline (1-10 μM) in the presence or absence of adenosine (100 μM). The force changes were measured by force transducer. Data are expressed as mean±SE. *p<0.05, adenosine treated versus the control, **p<0.05, theophiline treated versus the untreated, N=5. (b) CCS from wild type, A2AR, A1R A2BR and A3R-deficient mice were treated with different concentrations of adenosine. The relaxation was measured by force transducer. Data are expressed as mean±SE. *p<0.05, adenosine treated versus the wild type. […] 10 min after treatment, cellular extracts were collected and cAMP levels were measured by using a commercial enzyme immunoassay kit (Amersham Pharmacia). Data are expressed as mean±SE. *p<0.05, adenosine treated versus the control without treatment; **p<0.05, adenosine treated with MRS1706 versus the adenosine treated alone; ***p<0.05, CCS of A2BR-deficient mice treated with adenosine versus the CCS of wild type mice treated with adenosine. […]
In vitro corpus cavernosum tissue culture. […] Subsequently cavernosal strips were removed at and immediately frozen in liquid nitrogen for phosphorylation of myosin light chain determined by western blot analysis (see below). […]

[3] = CCS of SCD transgenic mice versus untreated CCS

| SMILES | force, duration and area under baseline of EFS-induced relaxation [1, 3] | adenosine-mediated induction of cAMP was inhibited ([2]; CCS, MRS1706 10 μM, L-NAME 100 μM) | force, duration and area under baseline of EFS-induced relaxation ([1]; CCS of the controls) | cAMP levels ([2]; wild type penile organ culture, 10 min) |
| --- | --- | --- | --- | --- |
| Nc1nc(NCCc2ccc(O)cc2)nc2nc(-c3ccco3)nn12 [ZM241385] | not | – | – | – |
| CCCn1c(=O)c2[nH]c(-c3ccc(OCC(=O)Nc4ccc(C(C)=O)cc4)cc3)nc2n(CCC)c1=O [MRS1706] | reduced the force, duration and area under baseline | inhibited | decreased the force, duration and area under baseline | – |
| Nc1ncnc2c1ncn2[C@@H]1O[C@H](CO)[C@@H](O)[C@H]1O [adenosine] | – | – | – | induced cAMP levels in a dose-dependent manner |
